Results: US20250009852A1, “DEPLETING EGFR AND HER2 OVERCOMES RESISTANCE TO EGFR INHIBITORS IN COLORECTAL CANCER” (Health Research, Inc., priority 2021, published 2025)

Key:
[1] = test system: HER3, IGF1R, MET, SRC, AKT, ERK, MEK, NRAS, HRAS, caspase 3; experiment: Western blotting of tumor homogenates: other signaling proteins; assay type: in vivo, mouse; conditions: HCT116 and HT29 tumors; single agent
Procedure: (§1) To prepare whole cell lysates, cells were washed with PBS twice, mixed with 1× cell lysis buffer from Cell Signaling Technology supplemented with 2 mM PMSF and a protease inhibitor cocktail from Roche Applied Science, placed on ice for 10 min, sonicated at 0-4° C. to enhance cell lysis using a Branson Model 450 sonifier, and finally centrifuged at 13,000 g for 10 min at 4° C., and the supernatant fraction is collected as whole cell lysate. Tumor and samples were mixed with RIPA buffer (25 mM Tris-HCl, PH7.6, 150 mM NaCl, 1% Nonidet P-40, 1% sodium deoxycholate, and 0.1% SDS), which was supplemented with 2 mM PMSF, the protease inhibitor cocktail mentioned above, phosphatase inhibitor cocktail 2 and phosphatase inhibitor cocktail 3 from Sigma-Aldrich at 14.3 μl buffer per mg tissue, and homogenized in a Dounce homogenizer. The homogenates were cleared by centrifugation at 13,000 g for 15 min at 4° C.
Protein concentrations in all samples were measured using the BCA Assay Kit. For Western blotting, each sample was mixed with 4× loading dye, heated for 5 min at 95° C., and resolved by SDS-PAGE (8-12.5%). Proteins were transferred to polyvinylidene fluoride membrane, probed with specific antibodies, and detected using either Luminata Classico (Millipore) or Luminata Cresendo (Millipore). […] The beads were washed three times with IP buffer, suspended in 2× SDS loading buffer, boiled for 5 min, and analyzed by Western blotting.
SCID mice (C.B.17 SCID) were bred by the Laboratory Animal Shared Resource at Roswell Park Comprehensive Cancer Center. […] Subcutaneous tumor volume was measured using length ×width^2÷2. Tumor volume was measured three times each week. Orthotopic tumor growth was monitored by bioluminescence weekly. Mice were given D-luciferin (150 mg/kg) by ip and anesthetized with isoflurane, and tumor burden was measured by bioluminescence using the IVIS Spectrum In Vivo Imaging System (PerkinElmer). Drug treatment was started when significant tumor growth was detected. […] The mice were closely monitored for sign of adverse effects and weighed three times each week.

EGFR and HER2 [2] = biological target: T1, EGFR and HER2 (Homo sapiens, UniProt P00533); experiment: Western blotting of whole cell lysates: EGFR and HER2; assay type: cell-based; conditions: HB-EGF 20 ng/ml in medium without serum
T1 construct: Both EGFR and HER2 were expressed in HCT116, HT29, and SW48 cells; endogenous in cells; host or cells: HCT116, HT29, SW48 (SW620 lacks both)
Procedure: as §1
(§2) Protein concentrations in all samples were measured using the BCA Assay Kit. For Western blotting, each sample was mixed with 4× loading dye, heated for 5 min at 95° C., and resolved by SDS-PAGE (8-12.5%). Proteins were transferred to polyvinylidene fluoride membrane, probed with specific antibodies, and detected using either Luminata Classico (Millipore) or Luminata Cresendo (Millipore). For IP, cell lysates (0.5 mg protein/sample) were incubated with a desired antibody overnight at 4° C., followed by incubation of 500 μl sample with 30 μl G-Sepharose beads (2 mg/ml) for 1 h at RT. The beads were washed three times with IP buffer, suspended in 2× SDS loading buffer, boiled for 5 min, and analyzed by Western blotting.

EGFR and HER2 [3] = experiment: as above; assay type: cell-based, human; conditions: HB-EGF 20 ng/ml alone, without PEPD^G278D and FBS
Procedure: as §1, §2

effect on EGFR depletion induced by PEPD^G278D (EGFR and HER2 [2]) | Substance | expression or phosphorylation of the proteins analyzed in tumors [1] | expression of EGFR or HER2 (EGFR and HER2 [3])
 | enoxaparin [EP] | neither EP nor aderbasib had any effect | 
mimicked the effect of serum | HB-EGF: recombinant human HB-EGF, a high affinity EGFR ligand [reference compound] |  | did not modulate the expression
